This is an account of results in paper PMC8094182, “8-Substituted Triazolobenzodiazepines: In Vitro and In Vivo Pharmacology in Relation to Structural Docking at the α1 Subunit-Containing GABAA Receptor” (Frontiers in Pharmacology, 2021).

Assay [1] addresses T1, rat α5β3γ2 GABAA receptor (α5GABAA) (Rattus norvegicus, UniProt P18508+P19969).
T1 construct: gene Gabra5; Full-length subunits co-expressed; pentamer; with Gamma-aminobutyric acid receptor subunit beta-3
Description: two-electrode voltage clamp, Xenopus oocytes, potentiation of GABA EC3 current. Format: cell-based. Particulars: read-out: α5. The source says: two-electrode voltage clamp, Xenopus oocytes, potentiation of GABA EC3 current on rat α5β3γ2 GABAA receptor (α5GABAA)

The target of assay [2] is T2, rat α1β3γ2 GABAA receptor (α1GABAA) (Rattus norvegicus, UniProt P18508+P62813).
T2 construct: gene Gabra1; Full-length subunits co-expressed; pentamer; with Gamma-aminobutyric acid receptor subunit beta-3
T2 sequence (P62813 28-455): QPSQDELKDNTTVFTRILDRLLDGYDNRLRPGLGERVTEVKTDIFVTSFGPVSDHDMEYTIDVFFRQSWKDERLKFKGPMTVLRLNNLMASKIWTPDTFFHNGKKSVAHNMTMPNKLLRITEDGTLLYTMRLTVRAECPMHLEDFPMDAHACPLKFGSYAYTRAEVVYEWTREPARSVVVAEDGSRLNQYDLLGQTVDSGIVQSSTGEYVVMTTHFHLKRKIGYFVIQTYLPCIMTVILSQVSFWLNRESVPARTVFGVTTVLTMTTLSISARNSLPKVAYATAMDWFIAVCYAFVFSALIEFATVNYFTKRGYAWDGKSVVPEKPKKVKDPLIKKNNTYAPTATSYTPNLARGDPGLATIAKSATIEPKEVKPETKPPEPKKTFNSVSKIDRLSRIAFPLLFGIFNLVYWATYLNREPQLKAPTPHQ
T2 sequence (P18508 39-466): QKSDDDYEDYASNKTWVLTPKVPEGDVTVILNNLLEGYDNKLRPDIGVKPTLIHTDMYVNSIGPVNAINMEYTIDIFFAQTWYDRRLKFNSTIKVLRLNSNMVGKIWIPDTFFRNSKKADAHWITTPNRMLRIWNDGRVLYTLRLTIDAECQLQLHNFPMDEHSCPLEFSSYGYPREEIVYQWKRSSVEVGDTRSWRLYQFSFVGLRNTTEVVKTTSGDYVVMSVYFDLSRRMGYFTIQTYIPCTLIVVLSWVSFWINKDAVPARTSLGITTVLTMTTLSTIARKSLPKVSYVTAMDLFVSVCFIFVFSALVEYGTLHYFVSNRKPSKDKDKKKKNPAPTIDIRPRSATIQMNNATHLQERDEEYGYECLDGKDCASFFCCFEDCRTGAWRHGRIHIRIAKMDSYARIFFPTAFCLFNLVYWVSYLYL
T2 sequence (P63079 26-473 partner): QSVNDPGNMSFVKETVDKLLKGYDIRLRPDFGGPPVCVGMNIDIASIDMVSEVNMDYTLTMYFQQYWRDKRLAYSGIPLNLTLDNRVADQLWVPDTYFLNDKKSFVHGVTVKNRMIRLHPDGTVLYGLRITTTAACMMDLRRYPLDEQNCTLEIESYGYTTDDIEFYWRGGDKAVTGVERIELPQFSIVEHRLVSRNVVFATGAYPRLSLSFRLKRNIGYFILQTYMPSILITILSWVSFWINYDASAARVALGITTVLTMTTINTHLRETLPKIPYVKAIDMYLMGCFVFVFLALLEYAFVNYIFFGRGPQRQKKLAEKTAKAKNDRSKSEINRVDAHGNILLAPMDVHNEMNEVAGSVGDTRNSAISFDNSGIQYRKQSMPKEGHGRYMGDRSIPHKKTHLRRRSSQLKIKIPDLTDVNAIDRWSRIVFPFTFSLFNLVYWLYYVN
The assay is described as above. It is filed as cell-based. Particulars: read-out: α1. The text has this: two-electrode voltage clamp, Xenopus oocytes, potentiation of GABA EC3 current on rat α1β3γ2 GABAA receptor (α1GABAA)

The target in assay [3] is T2, rat α1β3γ2 GABAA receptor (α1GABAA). Description: [3H]flunitrazepam displacement, HEK […] membranes, filtration. Format: binding. The following applies: read-out: α1.
The target of assay [4] is T1, rat α5β3γ2 GABAA receptor (α5GABAA). The description is as above. Format: binding. Particulars: read-out: α5.
The target in assay [5] is T3, rat α3β3γ2 GABAA receptor (α3GABAA) (Rattus norvegicus, UniProt P18508+P20236).
T3 construct: gene Gabra3; Full-length subunits co-expressed; pentamer; with Gamma-aminobutyric acid receptor subunit beta-3
T3 sequence (P20236 29-493): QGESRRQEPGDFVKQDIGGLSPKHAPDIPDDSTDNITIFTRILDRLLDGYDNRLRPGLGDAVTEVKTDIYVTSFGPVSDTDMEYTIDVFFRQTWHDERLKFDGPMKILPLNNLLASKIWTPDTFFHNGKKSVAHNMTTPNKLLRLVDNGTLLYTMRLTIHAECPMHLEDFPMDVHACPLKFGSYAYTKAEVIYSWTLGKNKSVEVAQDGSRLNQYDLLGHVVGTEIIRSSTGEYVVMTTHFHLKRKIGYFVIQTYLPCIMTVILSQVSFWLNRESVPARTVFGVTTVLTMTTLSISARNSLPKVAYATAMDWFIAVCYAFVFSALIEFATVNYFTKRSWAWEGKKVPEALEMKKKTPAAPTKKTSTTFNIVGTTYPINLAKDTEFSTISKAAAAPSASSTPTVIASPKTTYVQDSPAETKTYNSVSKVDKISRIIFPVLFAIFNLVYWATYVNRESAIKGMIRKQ
T3 sequence (P18508 39-466): as the sequence (P18508 39-466) above
T3 sequence (P63079 26-473 partner): as the sequence (P63079 26-473 partner) above
Briefly: two-electrode voltage clamp, Xenopus oocytes, potentiation of GABA EC3 current. The following applies: read-out: α3. It is filed as cell-based. The text has this:
two-electrode voltage clamp, Xenopus oocytes, potentiation of GABA EC3 current on rat α3β3γ2 GABAA receptor (α3GABAA)

For assay [6], the target named is T3, rat α3β3γ2 GABAA receptor (α3GABAA). Description: [3H]flunitrazepam displacement, HEK […] membranes, filtration. It is filed as binding. Particulars: read-out: α3.
Assay [7] concerns the target T4, rat α2β3γ2 GABAA receptor (α2GABAA) (Rattus norvegicus, UniProt P18508+P23576).
T4 construct: gene Gabra2; Full-length subunits co-expressed; pentamer; with Gamma-aminobutyric acid receptor subunit beta-3
The assay is described as above. It is filed as binding. The following applies: read-out: α2.

The target in assay [8] is T4, rat α2β3γ2 GABAA receptor (α2GABAA). Briefly: two-electrode voltage clamp, Xenopus oocytes, potentiation of GABA EC3 current. Particulars: read-out: α2. Format: cell-based. The source says:
two-electrode voltage clamp, Xenopus oocytes, potentiation of GABA EC3 current on rat α2β3γ2 GABAA receptor (α2GABAA)

T1 sequence (P19969 26-464): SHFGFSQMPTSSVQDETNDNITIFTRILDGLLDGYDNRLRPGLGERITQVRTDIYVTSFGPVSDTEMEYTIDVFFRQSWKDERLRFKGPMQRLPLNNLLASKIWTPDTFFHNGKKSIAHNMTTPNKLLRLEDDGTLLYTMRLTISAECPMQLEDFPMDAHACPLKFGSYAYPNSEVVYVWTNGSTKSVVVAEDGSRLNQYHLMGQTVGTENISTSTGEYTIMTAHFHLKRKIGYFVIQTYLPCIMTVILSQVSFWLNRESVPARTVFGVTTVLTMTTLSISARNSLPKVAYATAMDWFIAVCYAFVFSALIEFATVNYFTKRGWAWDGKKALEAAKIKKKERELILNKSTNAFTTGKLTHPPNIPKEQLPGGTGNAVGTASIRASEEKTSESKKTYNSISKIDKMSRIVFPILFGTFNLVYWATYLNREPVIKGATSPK
T1 sequence (P18508 39-466): as the sequence (P18508 39-466) above
T1 sequence (P63079 26-473 partner): as the sequence (P63079 26-473 partner) above
T4 sequence (P23576 29-451): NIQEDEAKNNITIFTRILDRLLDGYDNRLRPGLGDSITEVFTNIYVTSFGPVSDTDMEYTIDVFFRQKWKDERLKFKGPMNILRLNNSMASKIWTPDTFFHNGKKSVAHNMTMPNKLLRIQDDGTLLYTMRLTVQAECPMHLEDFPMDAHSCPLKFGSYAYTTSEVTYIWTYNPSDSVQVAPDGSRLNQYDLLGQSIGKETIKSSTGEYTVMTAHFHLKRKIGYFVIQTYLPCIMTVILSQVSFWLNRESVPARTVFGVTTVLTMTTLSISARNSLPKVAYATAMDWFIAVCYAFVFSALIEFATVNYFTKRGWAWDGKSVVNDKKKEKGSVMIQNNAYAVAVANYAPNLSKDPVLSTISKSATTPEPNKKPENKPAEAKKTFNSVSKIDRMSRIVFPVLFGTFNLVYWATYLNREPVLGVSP
T4 sequence (P18508 39-466): as the sequence (P18508 39-466) above
T4 sequence (P63079 26-473 partner): as the sequence (P63079 26-473 partner) above

Turning to `C#Cc1ccc2c(c1)C(c1ccccc1Cl)=NCc1nnc(C)n1-2` [XLi-JY-DMH, 6-(2-chlorophenyl)-8-ethynyl-1-methyl-4H-benzo [f][1,2,4]triazolo[4,3-a][1,4]diazepine], the EC50 in assay [1] came to 14.9 nM; in assay [2], 35.2 nM; in assay [5] it was 47 nM; in assay [8], 20.7 nM. Moreover, the Ki in assay [3] is 7.7 ± 5.5 nM; in assay [4], 3.8 ± 1 nM; in assay [6] it was 4.2 ± 1.6 nM; in assay [7] it was 7.2 ± 3 nM.
